Test results reported in US8962674B2 (Tokyo Institute of Technology, priority 2006, dated 2015).

What was measured:
[1] = molecular target: aggregated Aβ1-42 (Homo sapiens (Human), UniProt P05067); assay: Aβ1-42 degradation assay on pre-formed aggregates, thioflavin T fluorescence (Test Example 3); type: biochemical; conditions: aggregated Aβ, 1 hr at 37° C., read-out: IC50 (Aβ1-42 aggregate degradation, Table 2 head)
Protocol: Aβ1-42 (Peptide Institute) was dissolved in a 0.1% NH3 solution at a concentration of 60 μM, and incubated for 24 hr at 37° C. to form the aggregation. 25 μM of the aggregated Aβ solution diluted by 100 mM phosphate buffer (pH 7.4) and the compound dilution containing 2% DMSO were mixed in equal amount. The mixtures were incubated for 1 hr at 37° C. in a black 96-well plate. After incubation, 6 μM thioflavin T (Sigma) in 100 mM of glycine-NaOH buffer, pH 8.5, was added, and fluorescence was measured for excitation at 440 nm and emission at 486 nm. The solution with DMSO only, instead of the compound solution, was used as a negative control. The activity was calculated as a percentage of the negative control.

Sequence of aggregated Aβ1-42 (P05067 672-713): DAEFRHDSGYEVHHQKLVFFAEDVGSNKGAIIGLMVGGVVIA

Structure (SMILES) | IC50 [1] | melting point
COc1cc(/C=C/C(=O)CC(=O)/C=C/c2ccc(S(C)(=O)=O)cc2)ccc1O [CU005, (1E,6E)-1-(4-hydroxy-3-methoxyphenyl)-7-(4-methanesulfonylphenyl)hepta-1,6-diene-3,5-dione] | 3.3 µM | 117 to 120 °C
COc1cc(/C=C/C(=O)CC(=O)/C=C/c2ccc(N(C)C)c3ccccc23)ccc1O [CU019, (1E,6E)-1-(4-dimethylaminonaphthalen-1-yl)-7-(4-hydroxy-3-methoxyphenyl)hepta-1,6-diene-3,5-dione] | 0.4 µM | 
COc1cc(/C=C/C(=O)CC(=O)/C=C/c2ccc[nH]2)ccc1O [CU022, (1E,6E)-1-(4-hydroxy-3-methoxyphenyl)-7-(1H-pyrrol-2-yl)hepta-1,6-diene-3,5-dione] | 5.3 µM | 83 to 87 °C
